{"source": "patent US20150118222A1", "about": "“TREATMENT USING BRUTON'S TYROSINE KINASE INHIBITORS AND IMMUNOTHERAPY” (Pharmacyclics, Inc., priority 2013, published 2015)", "key": {"A20": {"system": "A20", "test": "IC50 of ibrutinib in A20 mouse lymphoma cells (FIG. 19B)", "format": "cell-based", "details": "read-out: IC50 of ibrutinib, FIG. 19 Panel B"}, "CT26 cells [1]": {"system": "CT26 cells", "test": "CT26 colon cancer mouse model (Example 8)", "format": "in vivo, BALB/c mice", "details": "CT26 colon carcinoma line"}, "4T1-Luc cells": {"system": "4T1-Luc cells", "details": "4T1, model of triple negative breast cancer"}, "CT26 cells [2]": {"system": "CT26 cells"}}, "note": "pIC50: −log10 of the molar value. Where two headings read alike, the source gives them in different places.", "data": [{"smiles": "C=CC(=O)N1CCC[C@@H](n2nc(-c3ccc(Oc4ccccc4)cc3)c3c(N)ncnc32)C1", "note": "[ibrutinib, 1-((R)-3-(4-amino-3-(4-phenoxyphenyl)-1H-pyrazolo[3,4-d]pyrimidin-1-yl)piperidin-1-yl)prop-2-en-1-one]", "values": [{"measurement": "pIC50", "setting": "A20", "value": "< 5.00"}, {"measurement": "sensitivity of the CT26 cell line to ibrutinib", "setting": "CT26 cells [1]", "value": "not sensitive"}, {"measurement": "sensitivity of the 4T1 cell line to ibrutinib", "setting": "4T1-Luc cells", "value": "not sensitive"}, {"measurement": "sensitivity of the CT26 cell line to ibrutinib", "setting": "CT26 cells [2]", "value": "not sensitive"}]}]}
